Assay results from patent US10913744B2, “LRRK2 inhibitors and methods of making and using the same” (Dana-Farber Cancer Institute, Inc., priority 2015, dated 2021).
Read-outs that look alike come from different tables or passages of the source.

Experiments:
wild type LRRK2 = wild type LRRK2 (Homo sapiens (Human), UniProt Q5S007); test: LRRK2 enzyme kinase assay, wild type; assay type: biochemical; settings: Table 1; ATP at Km 36 μm; read-out: Enzyme IC50 wt
CHEK1 = CHEK1 (Homo sapiens (Human), UniProt O14757); test: KinomeScan; assay type: binding; settings: 1 uM
[1] = target: EGFR (L747-E749del, A750P) (Homo sapiens (Human), UniProt P00533, A750P/DEL747-749); test: KinomeScan; assay type: binding; settings: 1 uM
ITK = ITK (Homo sapiens (Human), UniProt Q08881); test: KinomeScan; assay type: binding; settings: 1 uM
[2] = target: JAK1 (JH2domain-pseudokinase) (Homo sapiens (Human), UniProt P23458); test: KinomeScan; assay type: binding; settings: 1 uM
MAP4K3 = MAP4K3 (Homo sapiens (Human), UniProt Q8IVH8); test: KinomeScan; assay type: binding; settings: 1 uM
MARK4 = MARK4 (Homo sapiens (Human), UniProt Q96L34); test: KinomeScan; assay type: binding; settings: 1 uM
MST3 = MST3 (Homo sapiens (Human), UniProt Q9Y6E0); test: KinomeScan; assay type: binding; settings: 1 uM
PKMYT1 = PKMYT1 (Homo sapiens (Human), UniProt Q99640); test: KinomeScan; assay type: binding; settings: 1 uM
SNARK = SNARK (Homo sapiens (Human), UniProt Q9H093); test: KinomeScan; assay type: binding; settings: 1 uM
ULK3 = ULK3 (Homo sapiens (Human), UniProt Q6PHR2); test: KinomeScan; assay type: binding; settings: 1 uM
MARK3 = MARK3 (Homo sapiens (Human), UniProt P27448); test: Dundee profiling
Src = Src (Homo sapiens (Human), UniProt P12931); test: Dundee profiling
WNK1 = WNK1 (Homo sapiens (Human), UniProt Q9H4A3); test: Dundee profiling
p38d MAPK = p38d MAPK (Homo sapiens (Human), UniProt O15264); test: Dundee profiling
TLK1 = TLK1 (Homo sapiens (Human), UniProt Q9UKI8); test: Dundee profiling
S6K1 = S6K1 (Homo sapiens (Human), UniProt P23443); test: Dundee profiling
HIPK3 = HIPK3 (Homo sapiens (Human), UniProt Q9H422); test: Dundee profiling
PINK = test: Dundee profiling
AMPK (hum) = test: Dundee profiling
EIF2AK3 = EIF2AK3 (Homo sapiens (Human), UniProt Q9NZJ5); test: Dundee profiling
PAK4 = PAK4 (Homo sapiens (Human), UniProt O96013); test: Dundee profiling
PAK6 = PAK6 (Homo sapiens (Human), UniProt Q9NQU5); test: Dundee profiling
PKBa = PKBa (Homo sapiens (Human), UniProt P31749); test: Dundee profiling
MKK2 = MKK2 (Homo sapiens (Human), UniProt P36507); test: Dundee profiling
Aurora B = Aurora B (Homo sapiens (Human), UniProt Q96GD4); test: Dundee profiling
MINK1 = MINK1 (Homo sapiens (Human), UniProt Q8N4C8); test: Dundee profiling
MAPKAP-K2 = MAPKAP-K2 (Homo sapiens (Human), UniProt P49137); test: Dundee profiling
YES1 = YES1 (Homo sapiens (Human), UniProt P07947); test: Dundee profiling
CK1δ = CK1δ (Homo sapiens (Human), UniProt P48730); test: Dundee profiling
BRK = BRK (Homo sapiens (Human), UniProt Q13882); test: Dundee profiling
PKD1 = PKD1 (Homo sapiens (Human), UniProt Q15139); test: Dundee profiling
MKK6 = MKK6 (Homo sapiens (Human), UniProt P52564); test: Dundee profiling
CHK2 = CHK2 (Homo sapiens (Human), UniProt O96017); test: Dundee profiling
[3] = read-out: percent remaining enzymatic activity, I1, 1 μM
[4] = read-out: percent remaining enzymatic activity, I10
[5] = read-out: percent remaining enzymatic activity

Chain of CHK2 (O96017 whole entry, species assumed): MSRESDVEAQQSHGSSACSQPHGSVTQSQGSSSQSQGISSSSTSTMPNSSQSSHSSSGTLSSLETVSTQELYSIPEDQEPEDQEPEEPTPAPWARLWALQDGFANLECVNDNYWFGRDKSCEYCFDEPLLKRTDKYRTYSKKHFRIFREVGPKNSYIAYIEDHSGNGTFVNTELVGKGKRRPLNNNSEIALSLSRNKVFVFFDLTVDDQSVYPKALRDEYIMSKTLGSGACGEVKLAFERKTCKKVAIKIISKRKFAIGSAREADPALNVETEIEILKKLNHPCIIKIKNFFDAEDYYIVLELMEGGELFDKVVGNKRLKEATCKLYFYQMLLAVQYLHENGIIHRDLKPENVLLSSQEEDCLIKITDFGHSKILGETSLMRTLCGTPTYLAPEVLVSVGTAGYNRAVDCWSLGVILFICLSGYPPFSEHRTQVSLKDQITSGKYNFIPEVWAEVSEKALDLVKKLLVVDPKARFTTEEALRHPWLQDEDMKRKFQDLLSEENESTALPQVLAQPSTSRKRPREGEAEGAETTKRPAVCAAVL
Chain of WNK1 (Q9H4A3 whole entry, looked up, species assumed): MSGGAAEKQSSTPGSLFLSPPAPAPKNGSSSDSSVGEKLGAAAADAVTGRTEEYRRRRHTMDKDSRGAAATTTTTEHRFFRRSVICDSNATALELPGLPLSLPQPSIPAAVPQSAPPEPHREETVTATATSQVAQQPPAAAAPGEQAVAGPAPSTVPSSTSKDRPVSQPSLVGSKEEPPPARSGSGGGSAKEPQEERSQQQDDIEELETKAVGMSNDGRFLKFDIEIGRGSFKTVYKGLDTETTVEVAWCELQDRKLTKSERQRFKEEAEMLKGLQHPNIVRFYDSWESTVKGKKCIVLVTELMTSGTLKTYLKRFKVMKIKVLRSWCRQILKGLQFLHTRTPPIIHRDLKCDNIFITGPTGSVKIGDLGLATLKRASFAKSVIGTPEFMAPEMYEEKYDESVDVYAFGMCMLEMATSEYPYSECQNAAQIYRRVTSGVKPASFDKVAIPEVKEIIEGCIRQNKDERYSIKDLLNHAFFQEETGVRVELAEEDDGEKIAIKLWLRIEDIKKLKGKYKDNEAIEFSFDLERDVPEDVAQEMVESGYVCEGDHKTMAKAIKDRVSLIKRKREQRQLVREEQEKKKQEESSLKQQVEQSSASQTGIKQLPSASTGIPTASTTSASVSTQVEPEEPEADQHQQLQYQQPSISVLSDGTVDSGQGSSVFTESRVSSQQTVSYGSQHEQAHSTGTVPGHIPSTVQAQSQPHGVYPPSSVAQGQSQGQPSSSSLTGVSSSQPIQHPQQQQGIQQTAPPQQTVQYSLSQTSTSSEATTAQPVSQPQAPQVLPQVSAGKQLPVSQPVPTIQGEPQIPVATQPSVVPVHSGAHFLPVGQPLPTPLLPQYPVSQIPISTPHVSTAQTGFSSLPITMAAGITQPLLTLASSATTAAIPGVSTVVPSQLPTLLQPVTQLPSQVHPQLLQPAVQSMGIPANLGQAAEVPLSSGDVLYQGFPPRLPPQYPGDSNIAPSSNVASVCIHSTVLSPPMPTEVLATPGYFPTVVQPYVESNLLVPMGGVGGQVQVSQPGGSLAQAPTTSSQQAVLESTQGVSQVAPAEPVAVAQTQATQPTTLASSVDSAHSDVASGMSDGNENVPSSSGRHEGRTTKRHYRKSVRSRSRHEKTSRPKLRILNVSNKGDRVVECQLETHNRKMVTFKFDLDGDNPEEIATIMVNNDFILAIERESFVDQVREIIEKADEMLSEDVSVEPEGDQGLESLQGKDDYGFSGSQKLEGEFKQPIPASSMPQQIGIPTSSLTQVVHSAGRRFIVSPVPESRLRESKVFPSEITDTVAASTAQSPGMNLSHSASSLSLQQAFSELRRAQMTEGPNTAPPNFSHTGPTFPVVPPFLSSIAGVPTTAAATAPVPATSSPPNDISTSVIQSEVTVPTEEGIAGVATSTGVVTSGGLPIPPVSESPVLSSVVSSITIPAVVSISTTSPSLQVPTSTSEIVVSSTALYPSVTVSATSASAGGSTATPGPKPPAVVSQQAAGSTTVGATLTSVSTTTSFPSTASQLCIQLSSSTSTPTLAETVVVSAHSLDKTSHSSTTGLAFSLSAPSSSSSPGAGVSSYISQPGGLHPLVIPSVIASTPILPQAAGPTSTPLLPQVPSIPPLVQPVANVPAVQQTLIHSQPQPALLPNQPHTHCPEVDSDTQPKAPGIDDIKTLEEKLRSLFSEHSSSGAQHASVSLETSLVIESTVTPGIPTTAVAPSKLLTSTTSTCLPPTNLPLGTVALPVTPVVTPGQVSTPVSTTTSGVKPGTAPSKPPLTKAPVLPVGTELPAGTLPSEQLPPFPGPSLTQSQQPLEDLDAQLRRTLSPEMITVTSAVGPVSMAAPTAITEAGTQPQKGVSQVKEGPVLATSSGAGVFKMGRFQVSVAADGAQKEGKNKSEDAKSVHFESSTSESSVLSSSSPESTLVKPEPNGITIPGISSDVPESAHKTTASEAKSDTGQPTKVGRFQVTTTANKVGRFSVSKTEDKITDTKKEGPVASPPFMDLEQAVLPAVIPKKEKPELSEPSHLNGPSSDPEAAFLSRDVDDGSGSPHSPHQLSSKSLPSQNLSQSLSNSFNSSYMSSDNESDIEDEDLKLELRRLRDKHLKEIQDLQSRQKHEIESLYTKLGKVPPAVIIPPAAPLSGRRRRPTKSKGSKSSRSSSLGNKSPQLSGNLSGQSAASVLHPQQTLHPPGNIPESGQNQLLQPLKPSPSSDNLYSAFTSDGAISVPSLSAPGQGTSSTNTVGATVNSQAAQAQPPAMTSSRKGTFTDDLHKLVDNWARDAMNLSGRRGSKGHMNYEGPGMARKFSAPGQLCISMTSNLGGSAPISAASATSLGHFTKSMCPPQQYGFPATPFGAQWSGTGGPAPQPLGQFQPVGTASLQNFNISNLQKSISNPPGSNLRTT
Chain of MINK1 (Q8N4C8 whole entry, species assumed): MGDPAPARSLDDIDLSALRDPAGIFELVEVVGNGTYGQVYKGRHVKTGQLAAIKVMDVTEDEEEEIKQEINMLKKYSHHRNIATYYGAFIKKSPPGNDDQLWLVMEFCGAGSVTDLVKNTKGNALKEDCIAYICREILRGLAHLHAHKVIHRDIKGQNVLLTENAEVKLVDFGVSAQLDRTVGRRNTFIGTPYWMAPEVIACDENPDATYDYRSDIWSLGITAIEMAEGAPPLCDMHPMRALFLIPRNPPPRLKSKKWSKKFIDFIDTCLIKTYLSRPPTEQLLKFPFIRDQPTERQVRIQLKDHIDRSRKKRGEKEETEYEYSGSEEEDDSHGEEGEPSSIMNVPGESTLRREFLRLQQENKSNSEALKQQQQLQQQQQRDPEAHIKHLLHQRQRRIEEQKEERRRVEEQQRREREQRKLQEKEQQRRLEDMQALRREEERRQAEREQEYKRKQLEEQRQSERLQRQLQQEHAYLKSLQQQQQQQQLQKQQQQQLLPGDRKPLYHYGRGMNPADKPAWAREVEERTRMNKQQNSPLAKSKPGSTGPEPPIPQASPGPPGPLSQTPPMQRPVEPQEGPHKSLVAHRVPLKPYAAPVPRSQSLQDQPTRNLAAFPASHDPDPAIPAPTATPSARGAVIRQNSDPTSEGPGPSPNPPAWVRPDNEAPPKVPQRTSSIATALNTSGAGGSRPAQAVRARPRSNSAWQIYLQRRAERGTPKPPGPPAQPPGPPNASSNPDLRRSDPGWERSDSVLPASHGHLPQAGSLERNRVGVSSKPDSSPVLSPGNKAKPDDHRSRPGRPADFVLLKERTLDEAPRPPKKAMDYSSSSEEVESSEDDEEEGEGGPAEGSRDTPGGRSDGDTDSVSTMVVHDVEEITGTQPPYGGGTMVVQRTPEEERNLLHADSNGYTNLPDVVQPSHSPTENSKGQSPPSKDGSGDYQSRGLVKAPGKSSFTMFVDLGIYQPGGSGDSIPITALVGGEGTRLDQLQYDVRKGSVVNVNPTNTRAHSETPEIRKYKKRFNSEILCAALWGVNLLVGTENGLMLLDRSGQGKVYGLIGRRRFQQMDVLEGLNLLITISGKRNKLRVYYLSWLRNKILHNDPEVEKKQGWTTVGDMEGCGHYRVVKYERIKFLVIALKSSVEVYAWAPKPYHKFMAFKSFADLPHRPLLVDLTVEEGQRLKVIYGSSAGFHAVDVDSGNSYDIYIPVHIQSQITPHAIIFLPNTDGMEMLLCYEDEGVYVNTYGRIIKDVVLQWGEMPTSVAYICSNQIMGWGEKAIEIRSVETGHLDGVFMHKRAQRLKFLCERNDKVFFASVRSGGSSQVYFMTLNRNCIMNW
Chain of Src (P12931 whole entry, looked up, species assumed): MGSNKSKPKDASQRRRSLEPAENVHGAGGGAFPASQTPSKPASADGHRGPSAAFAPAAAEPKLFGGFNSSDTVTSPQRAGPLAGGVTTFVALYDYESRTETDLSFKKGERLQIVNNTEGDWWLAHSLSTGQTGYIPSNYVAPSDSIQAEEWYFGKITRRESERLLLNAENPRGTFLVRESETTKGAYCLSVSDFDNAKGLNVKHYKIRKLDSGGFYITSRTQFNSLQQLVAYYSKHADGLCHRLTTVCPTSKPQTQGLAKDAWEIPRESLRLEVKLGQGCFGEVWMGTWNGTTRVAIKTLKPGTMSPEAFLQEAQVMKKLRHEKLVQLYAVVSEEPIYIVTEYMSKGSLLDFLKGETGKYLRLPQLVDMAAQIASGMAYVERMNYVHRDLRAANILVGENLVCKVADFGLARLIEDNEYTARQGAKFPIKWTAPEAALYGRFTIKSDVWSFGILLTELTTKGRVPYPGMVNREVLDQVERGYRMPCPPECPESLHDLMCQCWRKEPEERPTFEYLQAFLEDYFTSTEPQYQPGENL
Chain of MKK6 (P52564 whole entry, species assumed): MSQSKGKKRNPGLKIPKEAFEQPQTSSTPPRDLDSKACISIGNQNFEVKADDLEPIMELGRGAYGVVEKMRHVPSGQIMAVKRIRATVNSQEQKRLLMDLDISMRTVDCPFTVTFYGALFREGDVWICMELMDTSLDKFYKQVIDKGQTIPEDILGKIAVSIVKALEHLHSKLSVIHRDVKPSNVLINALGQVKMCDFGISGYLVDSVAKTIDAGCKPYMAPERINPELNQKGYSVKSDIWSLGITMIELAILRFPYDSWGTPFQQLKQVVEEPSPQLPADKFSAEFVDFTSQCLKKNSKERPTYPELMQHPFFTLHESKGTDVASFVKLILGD

**Q.** What does the source list for `CNc1nc(Nc2ccc(C(=O)N3CCOCC3)cc2OC)nc2[nH]cc(Cl)c12` [Compound 18, (4-((5-chloro-4-(methylamino)-7H-pyrrolo[2,3-d]pyrimidin-2-yl)amino)-3-methoxyphenyl)(morpholino)methanone]?
**A.** IC50 (wild type LRRK2): 6.5 nM; KinomeScan value (CHEK1): 100; KinomeScan value [1]: 81; KinomeScan value (ITK): 88; KinomeScan value [2]: 99; KinomeScan value (MAP4K3): 100; KinomeScan value (MARK4): 82; KinomeScan value (MST3): 91; KinomeScan value (PKMYT1): 100; KinomeScan value (SNARK): 100; KinomeScan value (ULK3): 96; remaining activity at 1 µM (MARK3; [3]): 120%; remaining activity at 1 µM (MARK3; [4]): 92%; remaining activity at 1 µM (Src; [3]): 110%; remaining activity at 1 µM (Src; [4]): 102%; percent remaining enzymatic activity (WNK1; I10): 115%; remaining activity at 1 µM (WNK1; [5]): 108%; remaining activity at 1 µM (p38d MAPK; [3]): 107%; remaining activity at 1 µM (p38d MAPK; [4]): 102%; remaining activity at 1 µM (TLK1; [3]): 106%; remaining activity at 1 µM (TLK1; [4]): 105%; remaining activity at 1 µM (S6K1; [3]): 106%; remaining activity at 1 µM (S6K1; [4]): 102%; remaining activity at 1 µM (HIPK3; [3]): 106%; remaining activity at 1 µM (HIPK3; [4]): 93%; percent remaining enzymatic activity (PINK; I1, 1 μM): 105%; percent remaining enzymatic activity (PINK; I10): 89%; percent remaining enzymatic activity (AMPK (hum); I1, 1 μM): 104%; percent remaining enzymatic activity (AMPK (hum); I10): 92%; remaining activity at 1 µM (EIF2AK3; [3]): 102%; remaining activity at 1 µM (EIF2AK3; [4]): 79%; remaining activity at 1 µM (PAK4; [3]): 102%; remaining activity at 1 µM (PAK4; [4]): 92%; remaining activity at 1 µM (PAK6; [3]): 102%; remaining activity at 1 µM (PAK6; [4]): 105%; remaining activity at 1 µM (PKBa; [3]): 101%; remaining activity at 1 µM (PKBa; [4]): 105%; remaining activity at 1 µM (MKK2; [3]): 101%; remaining activity at 1 µM (MKK2; [4]): 72%; remaining activity at 1 µM (Aurora B; [3]): 97%; remaining activity at 1 µM (Aurora B; [4]): 90%; remaining activity at 1 µM (MINK1; [3]): 95%; remaining activity at 1 µM (MINK1; [4]): 68%; remaining activity at 1 µM (MAPKAP-K2; [3]): 86%; remaining activity at 1 µM (MAPKAP-K2; [4]): 40%; percent remaining enzymatic activity (YES1; I10): 85%; remaining activity at 1 µM (YES1; [5]): 85%; remaining activity at 1 µM (CK1δ; [3]): 74%; remaining activity at 1 µM (CK1δ; [4]): 33%; remaining activity at 1 µM (BRK; [3]): 62%; remaining activity at 1 µM (BRK; [4]): 19%; remaining activity at 1 µM (PKD1; [3]): 47%; remaining activity at 1 µM (PKD1; [4]): 7%; remaining activity at 1 µM (MKK6; [3]): 37%; remaining activity at 1 µM (MKK6; [4]): 11%; IC50 (CHK2): 27.6 nM; inhibition at 1 µM (CHK2; read-out: inhibition of kinase activity of the DMSO control): > 90%; remaining activity at 1 µM (CHK2; [3]): 5%; remaining activity at 1 µM (CHK2; [4]): 1%
